We go through one cell line from the supplement of paper PMC10307832.

Experiment in all cases: relative viability (nuclei count vs DMSO), 5 days (fraction); higher = more cells survive
Compound in the assay “Linifanib + AZD7762”: Cc1ccc(F)c(NC(=O)Nc2ccc(-c3cccc4[nH]nc(N)c34)cc2)c1 [Linifanib] + NC(=O)Nc1cc(-c2cccc(F)c2)sc1C(=O)N[C@H]1CCCNC1 [AZD7762] (partner 0.2 µM)
In a few lines: (§1)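 Medians of duplicate plates are given as relative viability. That measure is the nuclei count in treated wells divided by the count in vehicle wells. Counts were taken on 4× images of lung cancer cell lines in 1536-well plates, 5 days after pin-tool dosing the day after seeding with one drug alone or a fixed anchor-drug dose plus five library-drug doses (not always all listed) in √10 steps.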

Compound in the assay “Linifanib + Crizotinib”: Cc1ccc(F)c(NC(=O)Nc2ccc(-c3cccc4[nH]nc(N)c34)cc2)c1 [Linifanib] + C[C@@H](Oc1cc(-c2cnn(C3CCNCC3)c2)cnc1N)c1c(Cl)ccc(F)c1Cl [Crizotinib] (partner 1 µM)
A digest of the protocol:
as §1

Compound in the assay “Linifanib + Navitoclax”: Cc1ccc(F)c(NC(=O)Nc2ccc(-c3cccc4[nH]nc(N)c34)cc2)c1 [Linifanib] + CC1(C)CCC(c2ccc(Cl)cc2)=C(CN2CCN(c3ccc(C(=O)NS(=O)(=O)c4ccc(N[C@H](CCN5CCOCC5)CSc5ccccc5)c(S(=O)(=O)C(F)(F)F)c4)cc3)CC2)C1 [Navitoclax] (partner 0.5 µM)
In a few lines: as §1

Compound in the assay “Linifanib + Pemetrexed”: Cc1ccc(F)c(NC(=O)Nc2ccc(-c3cccc4[nH]nc(N)c34)cc2)c1 [Linifanib] + Nc1nc2[nH]cc(CCc3ccc(C(=O)N[C@@H](CCC(=O)O)C(=O)O)cc3)c2c(=O)[nH]1 [Pemetrexed] (partner 0.2 µM)
A digest of the protocol: as §1

Compound in the assay “Linifanib + Olaparib”: Cc1ccc(F)c(NC(=O)Nc2ccc(-c3cccc4[nH]nc(N)c34)cc2)c1 [Linifanib] + O=C(c1cc(Cc2n[nH]c(=O)c3ccccc23)ccc1F)N1CCN(C(=O)C2CC2)CC1 [Olaparib] (partner 8 µM)
A digest of the protocol: as §1

Compound in the assay “Linifanib + Tozasertib”: Cc1ccc(F)c(NC(=O)Nc2ccc(-c3cccc4[nH]nc(N)c34)cc2)c1 [Linifanib] + Cc1cc(Nc2cc(N3CCN(C)CC3)nc(Sc3ccc(NC(=O)C4CC4)cc3)n2)n[nH]1 [Tozasertib] (partner 0.1 µM)
A digest of the protocol:
as §1

On to NCI-H1734, for which the relative viability came to 0.564 with Linifanib + AZD7762 (first compound 0.03162 µM); 0.591 with Linifanib + AZD7762 (first compound 0.1 µM); 0.538 with Linifanib + AZD7762 (first compound 0.3162 µM); 0.768 with Linifanib + Crizotinib (first compound 0.03162 µM); 0.834 with Linifanib + Crizotinib (first compound 0.1 µM); 0.735 in the assay with Linifanib + Crizotinib (first compound 0.3162 µM). The relative viability with Linifanib + Navitoclax (first compound 0.03162 µM) was 0.851; with Linifanib + Navitoclax (first compound 0.1 µM), 0.808; in the assay with Linifanib + Navitoclax (first compound 0.3162 µM) it was 0.789; with Linifanib + Pemetrexed (first compound 0.03162 µM), 0.401; in the assay with Linifanib + Pemetrexed (first compound 0.1 µM) it was 0.447; with Linifanib + Pemetrexed (first compound 0.3162 µM), 0.45. For the same cell line, the relative viability in the assay with Linifanib + Olaparib (first compound 0.03162 µM) came out at 0.591; with Linifanib + Olaparib (first compound 0.1 µM), 0.68; with Linifanib + Olaparib (first compound 0.3162 µM), 0.597; with Linifanib + Tozasertib (first compound 0.03162 µM) it was 0.289; with Linifanib + Tozasertib (first compound 0.1 µM) it was 0.288; with Linifanib + Tozasertib (first compound 0.3162 µM), 0.238.
